Laboratory results published in patent publication US7709471B2, “Compounds” (AstraZeneca AB, priority 2006, dated 2010).

What was measured:
[1] = target: recombinant Plk1 (Homo sapiens, UniProt P53350); test: In Vitro Plk1 Enzyme Assay (SPA, GST-Cdc25C phosphorylation); format: biochemical; settings: ATP 64 nM, 90 minutes, read-out: IC50 (Plk1 enzyme inhibition)
Method: Reactions were stopped by addition of EDTA (110 mM) and the Cdc25C substrate captured via its GST tag to anti-GST antibody (Molecular Probes, Cat No A-5800) coated Protein A PVT SPA beads (Amersham Biosciences, Catalogue No. RPQ0019; 250 μg/well) in 50 mM HEPES pH7.5 buffer containing 0.05% (w/v) sodium azide and incubated for up to 2 hours, followed by the addition of 20 μl of 4M caesium chloride (final assay concentration of 1M). Plates were then left in the dark overnight before counting on a Packard TopCount NXT.
Radiolabelled phosphorylated substrate is formed in situ as a result of Plk1 mediated phosphorylation. The SPA beads contain a scintillant that can be stimulated to emit light. This stimulation only occurs when a radiolabelled phosphorylated substrate is bound to the surface of the coated SPA bead causing the emission of blue light that can be measured on a scintillation counter. Accordingly, the extent of Plk1 mediated Cdc25C phosphorylation was assessed. The raw assay data were then analysed by non-linear regression analysis and Plk1 enzyme inhibition for a given test compound is expressed as an IC50 value.

[2] = test system: human colon tumour cell line HT29; test: Cellular Assay (phosphohistone H3 Ser10 mitotic marker, HT29); format: cell-based; settings: HT-29, 24 h, HT29 cells, read-out: IC50 (cellular assay, phosphohistone H3)
Method: Chromosome condensation in mitosis is accompanied by phosphorylation of histone H3 on serine 10.
After 24 hours, cells were fixed in 3.7% (v/v) formaldehyde then permeabilised and blocked for 10 minutes in 100 μl 0.5% (v/v) Triton X-100, 1% (w/v) bovine serum albumin (BSA) in phosphate buffered saline (PBS). […] The raw assay data were analysed by non-linear regression analysis and used to determine an IC50 value for each compound.

Sequence of recombinant Plk1 (P53350 whole entry): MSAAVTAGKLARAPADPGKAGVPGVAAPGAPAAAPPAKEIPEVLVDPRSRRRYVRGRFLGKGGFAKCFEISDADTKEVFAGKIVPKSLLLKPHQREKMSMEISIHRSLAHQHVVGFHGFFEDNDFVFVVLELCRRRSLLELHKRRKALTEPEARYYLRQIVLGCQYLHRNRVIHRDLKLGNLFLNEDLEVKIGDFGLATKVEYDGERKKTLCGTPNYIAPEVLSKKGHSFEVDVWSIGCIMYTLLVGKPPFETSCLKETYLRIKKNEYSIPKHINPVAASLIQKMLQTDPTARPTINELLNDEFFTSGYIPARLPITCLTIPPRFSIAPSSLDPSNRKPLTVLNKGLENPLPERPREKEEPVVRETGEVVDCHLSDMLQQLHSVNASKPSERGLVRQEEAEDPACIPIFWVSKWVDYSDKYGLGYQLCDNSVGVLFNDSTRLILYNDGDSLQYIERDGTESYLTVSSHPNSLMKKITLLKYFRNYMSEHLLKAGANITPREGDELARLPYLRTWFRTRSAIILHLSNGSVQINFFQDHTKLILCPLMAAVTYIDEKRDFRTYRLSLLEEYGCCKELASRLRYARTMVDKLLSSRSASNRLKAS

SMILES | IC50 [1] | IC50 [2]
COc1cc(C(=O)NCCN2CCN(C)CC2)ccc1Nc1ncc2c(n1)N(C1CCCC1)CCC(=O)N2C [Example 34, 4-[(6-cyclopentyl-2-methyl-3-oxo-2,6,8,10-tetrazabicyclo[5.4.0]undeca-8,10,12-trien-9-yl)amino]-3-methoxy-N-[2-(4-methylpiperazin-1-yl)ethyl]benzamide] | < 300 nM | < 300 nM
CNCCCNC(=O)c1ccc(Nc2ncc3c(n2)N(C2CCCC2)CCC(=O)N3C)c(OC)c1 [Example 44, 4-[(6-cyclopentyl-2-methyl-3-oxo-2,6,8,10-tetrazabicyclo[5.4.0]undeca-8,10,12-trien-9-yl)amino]-3-methoxy-N-(3-methylaminopropyl)benzamide] | < 300 nM | < 300 nM
CN1CCC(NC(=O)c2cnc(Nc3ncc4c(n3)N(C3CCCC3)CCC(=O)N4C)s2)CC1 [Example 263, 2-[(6-cyclopentyl-2-methyl-3-oxo-2,6,8,10-tetrazabicyclo[5.4.0]undeca-8,10,12-trien-9-yl)amino]-N-(1-methyl-4-piperidyl)1,3-thiazole-5-carboxamide] | < 100000 nM | < 30000 nM
COc1cc(C(=O)NC2CCN(C)CC2)ccc1Nc1ncc2c(n1)N(CC1CC1)CCC(=O)N2C [Example 213, 4-[[6-(cyclopropylmethyl)-2-methyl-3-oxo-2,6,8,10-tetrazabicyclo[5.4.0]undeca-8,10,12-trien-9-yl]amino]-3-methoxy-N-(1-methyl-4-piperidyl)benzamide] | < 300 nM | < 300 nM
COc1cc(C(=O)NC2CCN(C)CC2)ccc1Nc1ncc2c(n1)N(C1CCCC1=O)CCC(=O)N2C (centres unmarked) [Example 410, 3-methoxy-4-[[6-methyl-5-oxo-2-(2-oxocyclopentyl)-2,6,9,11-tetrazabicyclo[5.4.0]undeca-7,9,11-trien-10-yl]amino]-N-(1-methyl-4-piperidyl)benzamide] | < 1000 nM | < 30000 nM
COc1cc(C(=O)NCCN2CCOCC2)ccc1Nc1ncc2c(n1)N(c1ccccc1)CCC(=O)N2C [Example 220, 3-methoxy-4-[(2-methyl-3-oxo-6-phenyl-2,6,8,10-tetrazabicyclo[5.4.0]undeca-8,10,12-trien-9-yl)amino]-N-(2-morpholin-4-ylethyl)benzamide] | < 1000 nM | < 30000 nM
COc1cc(C(=O)NC2CCN(C)CC2)ccc1Nc1ncc2c(n1)N(C(C)C)CCC(=O)N2C [Example 6, 3-Methoxy-4-[(6-methyl-5-oxo-2-propan-2-yl-2,6,9,11-tetrazabicyclo[5.4.0]undeca-7,9,11-trien-10-yl)amino]-N-(1-methyl-4-piperidyl)benzamide] | < 300 nM | < 300 nM
CN1CCC(NC(=O)c2ccc(Nc3ncc4c(n3)N(C3CCCC3)CCC(=O)N4C)cc2F)CC1 [Example 189, 4-[(6-cyclopentyl-2-methyl-3-oxo-2,6,8,10-tetrazabicyclo[5.4.0]undeca-8,10,12-trien-9-yl)amino]-2-fluoro-N-(1-methyl-4-piperidyl)benzamide] | < 300 nM | < 300 nM
CN1C(=O)CCN(C2CCCC2)c2nc(Nc3ccc(Cl)c(CO)c3)ncc21 [Example 131, 9-[[4-chloro-3-(hydroxymethyl)phenyl]amino]-6-cyclopentyl-2-methyl-2,6,8,10-tetrazabicyclo[5.4.0]undeca-8,10,12-trien-3-one] | < 1000 nM | < 30000 nM
CCN(CC)CCCCNC(=O)c1ccc(Nc2ncc3c(n2)N(C2CCCC2)CCC(=O)N3C)c(OC)c1 [Example 30, 4-[(6-cyclopentyl-2-methyl-3-oxo-2,6,8,10-tetrazabicyclo[5.4.0]undeca-8,10,12-trien-9-yl)amino]-N-(4-diethylaminobutyl)-3-methoxy-benzamide] | < 300 nM | < 300 nM
CN1C(=O)CCN(C2CCCC2)c2nc(Nc3ccc(OCCN4CCOCC4)cc3)ncc21 [Example 135, 6-cyclopentyl-2-methyl-9-[[4-(2-morpholin-4-ylethoxy)phenyl]amino]-2,6,8,10-tetrazabicyclo[5.4.0]undeca-8,10,12-trien-3-one] | < 100000 nM | < 1000 nM
CC(=O)c1cccc(Nc2ncc3c(n2)N(C2CCCC2)CCC(=O)N3C)c1 [Example 165, 9-[(3-acetylphenyl)amino]-6-cyclopentyl-2-methyl-2,6,8,10-tetrazabicyclo[5.4.0]undeca-8,10,12-trien-3-one] | < 1000 nM | < 30000 nM
CN1CCC(NC(=O)c2ccc(Nc3ncc4c(n3)N(c3ccccc3)CCC(=O)N4)c(Cl)c2)CC1 [Example 248, 3-chloro-N-(1-methyl-4-piperidyl)-4-[(3-oxo-6-phenyl-2,6,8,10-tetrazabicyclo[5.4.0]undeca-8,10,12-trien-9-yl)amino]benzamide] | < 100000 nM | < 30000 nM
COc1cc(C(=O)NC2CCN(C(=O)OCc3ccccc3)CC2)ccc1Nc1ncc2c(n1)N(C1CCCC1)CCC(=O)N2C [Example 54, Benzyl 4-[[4-[(6-cyclopentyl-2-methyl-3-oxo-2,6,8,10-tetrazabicyclo[5.4.0]undeca-8,10,12-trien-9-yl)amino]-3-methoxy-benzoyl]amino]piperidine-1-carboxylate] | < 100000 nM | < 300 nM
COc1ccc(NC(=O)c2ccc(Nc3ncc4c(n3)N(C3CCCC3)CCC(=O)N4C)c(OC)c2)cc1 [Example 77, 4-[(6-cyclopentyl-2-methyl-3-oxo-2,6,8,10-tetrazabicyclo[5.4.0]undeca-8,10,12-trien-9-yl)amino]-3-methoxy-N-(4-methoxyphenyl)benzamide] | < 100000 nM | < 1000 nM
CN(C)CCCNC(=O)c1ccc(Nc2ncc3c(n2)N(C2CCCC2)CCC(=O)N3C)c(Cl)c1 [Example 317, 3-chloro-4-[(2-cyclopentyl-6-methyl-5-oxo-2,6,9,11-tetrazabicyclo[5.4.0]undeca-7,9,11-trien-10-yl)amino]-N-(3-dimethylaminopropyl)benzamide] | < 300 nM | < 300 nM
CN1CCC(NC(=O)c2ccc(Nc3ncc4c(n3)N(C3CCCC3)CCC(=O)N4C)c(F)c2)CC1 [Example 194, 4-[(6-cyclopentyl-2-methyl-3-oxo-2,6,8,10-tetrazabicyclo[5.4.0]undeca-8,10,12-trien-9-yl)amino]-3-fluoro-N-(1-methyl-4-piperidyl)benzamide] | < 300 nM | < 300 nM
COc1cc(C(=O)NC2CCCCC2)ccc1Nc1ncc2c(n1)N(C1CCCC1)CCC(=O)N2C [Example 90, N-cyclohexyl-4-[(6-cyclopentyl-2-methyl-3-oxo-2,6,8,10-tetrazabicyclo[5.4.0]undeca-8,10,12-trien-9-yl)amino]-3-methoxy-benzamide] | < 1000 nM | < 300 nM
CCN(CC)C1CCC(NC(=O)c2ccc(Nc3ncc4c(n3)N(C3CCCC3)CCC(=O)N4C)c(OC)c2)CC1 (centres unmarked) [Example 58, 4-[(6-cyclopentyl-2-methyl-3-oxo-2,6,8,10-tetrazabicyclo[5.4.0]undeca-8,10,12-trien-9-yl)amino]-N-(4-diethylaminocyclohexyl)-3-methoxy-benzamide] | < 300 nM | < 300 nM
